From patent publication US20100285145A1, “GPR 119 MODULATORS” (PFIZER INC, priority 2009, published 2010)
pEC50: −log10 of the molar value. Values joined by “and” are separate entries in the source; they are usually repeats but may differ in a detail not shown here. Equal entries are not always repeated.

How the values were obtained:
[1] = target: T1, human GPR119 (Homo sapiens, UniProt Q8TDV5); assay: β-Arrestin PathHunter assay (U2OS hGPR119 β-arrestin cells); assay type: cell-based; settings: for pEC50: U2OS hGPR119 β-arrestin cells, 90 min, each line a separate determination, read-out: Human B-arrestin Functional EC50; for Intrinsic Activity (Human B-arrestin) / Emax: percent of maximal activity relative to standard GPR119 agonist at 10 micromolar; for Emax: U2OS, read-out: Intrinsic Activity (Human B-arrestin)
T1 sequence (Q8TDV5 1-335): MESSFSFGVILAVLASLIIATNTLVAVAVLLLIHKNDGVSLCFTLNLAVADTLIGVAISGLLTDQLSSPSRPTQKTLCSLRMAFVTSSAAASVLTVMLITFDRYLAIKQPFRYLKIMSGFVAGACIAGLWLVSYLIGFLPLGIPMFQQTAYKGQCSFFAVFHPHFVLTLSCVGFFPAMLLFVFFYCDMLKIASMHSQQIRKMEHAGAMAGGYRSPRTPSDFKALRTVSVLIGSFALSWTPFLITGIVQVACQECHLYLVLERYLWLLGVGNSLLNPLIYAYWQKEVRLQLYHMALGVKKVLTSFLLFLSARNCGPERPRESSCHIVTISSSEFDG
Summary of the method: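 Cells carry ProLink-tagged GPR119 and EA-fused β-arrestin; 5000 cells/well were plated overnight in Opti-MEM with 2% charcoal-dextran serum. Compounds were applied for 90 min at 37 °C in HBSS/20 mM HEPES pH 7.0/0.1% BSA (0.5% DMSO), followed by Galacton Star substrate for 60 min at RT and a luminescence read. EC50 came from a 4-parameter logistic fit.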

[2] = target: T1, human GPR119; assay: cAMP HTRF functional assay (hGPR119 HEK-CRE beta-lactamase cells); assay type: cell-based; set-up: host or cells: HEK293-CRE beta-lactamase; settings: for pEC50: HTRF cAMP, 30 min, 400 microM IBMX, each line a separate determination
Summary of the method: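 hGPR119 HEK-CRE cells (5000/well), cultured overnight, then treated 30 min at room temperature with compound plus 400 microM IBMX (0.58% DMSO). cAMP measured by competitive HTRF immunoassay after 60 min lysis/detection, converted to nM via standard curve; EC50 from 4-parameter logistic fit.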

[3] = percent of maximal activity relative to standard GPR119 agonist at 10 micromolar

Compound | pEC50 [1] | Intrinsic Activity (Human B-arrestin) [1] | pEC50 [2] | Intrinsic Activity (Human cAMP) [2, 3] | Emax [1] [%] | Emax ([2]; percent of maximal activity relative to standard GPR119 agonist at 10 micromolar, read-out: Intrinsic Activity (Human cAMP)) [%]
CC(C)OC(=O)N1CCC(Oc2cc(N3CCc4cc(S(C)(=O)=O)ccc43)ncn2)CC1 [Example 3, Isopropyl 4-({6-[5-(methylsulfonyl)-2,3-dihydro-1H-indol-1-yl]pyrimidin-4-yl}oxy)piperidine-1-carboxylate] | 7.66 and 7.83 and 7.14 | 75.8% and 62.2% and 87.9% | 7.54 and 6.90 and 6.65 and 6.70 and 7.31 and 6.82 and 7.20 and 6.69 and 6.98 | 107% | – | –
Cc1c(O[C@H]2[C@@H]3COC[C@H]2CN(C(=O)OC(C)C)C3)ncnc1N1CCc2ncccc21 [Example 22, Isopropyl (9-anti)-9-{[6-(2,3-dihydro-1H-pyrrolo[3,2-b]pyridin-1-yl)-5-methylpyrimidin-4-yl]oxy}-3-oxa-7-azabicyclo[3.3.1]nonane-7-carboxylate] | 7.40 and 7.48 and 7.13 and 7.38 | 70.5% and 71.2% and 60.3% | 6.94 and 6.77 and 6.86 and 6.57 | 80.4% and 66.6% and 74.1% and 55.6% | 68.8 | –
Cc1c(O[C@H]2[C@@H]3COC[C@H]2CN(C(=O)OC2(C)CCC2)C3)ncnc1N1CCc2ncccc21 [Example 27, 1-Methylcyclobutyl (9-anti)-9-{[6-(2,3-dihydro-1H-pyrrolo[3,2-b]pyridin-1-yl)-5-methylpyrimidin-4-yl]oxy}-3-oxa-7-azabicyclo[3.3.1]nonane-7-carboxylate] | 8.40 and 7.64 and 8.24 and 7.96 | 64.2% and 58.1% and 51.4% | 7.13 and 7.16 and 7.37 | 43.5% and 30.6% and 28.4% | 63.5 | 39.1
